# Results: PubChem BioAssay (NCI)
# Several values for one entry are separate records, joined by “and”; a condition that tells them apart may be missing. Equal entries are not always repeated.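 In this assay, cells in 96-well plates receive the compound at five concentrations for 48 hours. Endpoints are linearly interpolated between the surrounding concentrations. GI50 marks 50% less growth. TGI: concentration producing complete growth inhibition.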
# Legend:
# Assay in all cases: NCI-60 cell line screen, 48 h
# OVCAR-3 ovarian = test system: OVCAR-3 ovarian
# SK-MEL-2 melanoma = test system: SK-MEL-2 melanoma
# OVCAR-8 ovarian = test system: OVCAR-8 ovarian
# SF-539 CNS = test system: SF-539 CNS
# SK-MEL-5 melanoma = test system: SK-MEL-5 melanoma
# OVCAR-4 ovarian = test system: OVCAR-4 ovarian
# HT29 colon = test system: HT29 colon
# SK-MEL-28 melanoma = test system: SK-MEL-28 melanoma
# NCI-H23 lung = test system: NCI-H23 lung
# EKVX NSCLC = test system: EKVX NSCLC
SMILES,TGI (OVCAR-3 ovarian),TGI (SK-MEL-2 melanoma),TGI (OVCAR-8 ovarian),TGI (SF-539 CNS),TGI (SK-MEL-5 melanoma),TGI (OVCAR-4 ovarian),TGI (HT29 colon),TGI (SK-MEL-28 melanoma),TGI (NCI-H23 lung),TGI (EKVX NSCLC),GI50 (OVCAR-3 ovarian),GI50 (SK-MEL-2 melanoma),GI50 (OVCAR-8 ovarian),GI50 (SF-539 CNS),GI50 (SK-MEL-5 melanoma),GI50 (OVCAR-4 ovarian),GI50 (HT29 colon),GI50 (SK-MEL-28 melanoma),GI50 (NCI-H23 lung),GI50 (EKVX NSCLC)
NC1=C(O)C(=O)C(c2c[nH]c3ccc(OCc4ccccc4)cc23)O1 (centres undefined),> 100 µM,> 100 µM,> 100 µM,> 100 µM,> 100 µM,> 100 µM,> 100 µM,> 100 µM,> 100 µM,> 100 µM,–,–,–,–,–,–,–,–,–,–
Cc1c(C2CCSc3ccccc3N2)sc2ccccc12 (centres undefined),> 100 µM,> 100 µM,> 100 µM,> 100 µM,> 100 µM,> 100 µM,> 100 µM,> 100 µM,> 100 µM,> 100 µM,–,–,–,–,–,–,–,–,–,–
CCOc1ccccc1NC(=O)C1=C(C)NC(C)=C(C(=O)Nc2ccccc2OCC)C1c1cccc([N+](=O)[O-])c1,> 100 µM,> 100 µM,> 100 µM,> 100 µM,> 100 µM,> 100 µM,> 100 µM,> 100 µM,> 100 µM,> 100 µM,–,–,–,–,–,–,–,–,–,–
O=C1C=CC(=O)c2c(O)c(N(CCCl)CCCl)c(Cl)c(O)c21,7.25 µM,> 7.91 µM,6.9 µM,> 7.9 µM,7.41 µM,6.24 µM,> 8.53 µM,> 6.98 µM,> 8.05 µM,> 10 µM,–,–,–,–,–,–,–,–,–,–
O=C(N/C(=C\c1ccc(F)cc1)c1nc2ccccc2[nH]1)c1ccccc1,> 100 µM,> 100 µM,> 100 µM,> 100 µM,> 100 µM,> 100 µM,> 100 µM,> 100 µM,> 100 µM,> 100 µM,–,–,–,–,–,–,–,–,–,–
CNC(=O)c1cc(-c2ccc(F)cc2)cc(-c2ccc(S(=O)(=O)N3CCCC3)cc2)c1N,> 25 µM,> 25 µM,> 25 µM,> 25 µM,> 25 µM,> 25 µM,> 25 µM,> 25 µM,> 25 µM,> 25 µM,18.2 µM,> 25 µM,> 25 µM,> 25 µM,12.9 µM,16.1 µM,15.7 µM,> 25 µM,> 25 µM,10.2 µM
CN1C/C(=C\c2ccc(C(=O)O)cc2)C(=O)/C(=C/c2ccc(C(=O)O)cc2)C1,> 100 µM,> 100 µM,> 100 µM,> 100 µM,> 100 µM,> 100 µM,> 100 µM,> 100 µM,> 100 µM,> 100 µM,–,–,–,–,–,–,–,–,–,–
CCN(CC)CCNc1ccc([N+](=O)[O-])c2nc3ccc(OC)cc3c(N)c12,3.55 µM,3.22 µM,3.45 µM,3.27 µM,2.22 µM,1.91 µM,1.42 µM,3.37 µM,3.53 µM,3.28 µM,–,–,–,–,–,–,–,–,–,–
Cc1nc2sc(C(=O)Nc3ccccc3)c(N)c2cc1C(=O)c1ccccc1,6.19 µM,> 50 µM,> 50 µM,> 50 µM,8.13 µM,> 50 µM,9.54 µM,> 50 µM,> 50 µM,> 50 µM,1.91 µM,2.83 µM,3.86 µM,1.66 µM,1.97 µM,34.7 µM,1.75 µM,8.82 µM,3.99 µM,2.74 µM
COC(=O)Nc1nc2ccc(C(=O)c3cccs3)cc2[nH]1,–,12.1 µM and > 100 µM,15.7 µM and > 100 µM,–,6.43 µM and 2.06 µM,70.9 µM and > 100 µM,–,61.8 µM and > 100 µM,0.602 µM,15.2 µM and > 100 µM,0.0192 µM and 0.0664 µM,20 µM,0.487 µM,0.0259 µM and 0.21 µM,0.0215 µM and 0.0666 µM,–,0.0552 µM,0.376 µM,0.277 µM,0.584 µM
COC(=O)[C@@H](C)C[C@H](Cc1ccccc1)NC(=O)c1csc([C@@H](C[C@H](C(C)C)N(C)C(=O)[C@@H](NC(=O)[C@H]2CCCCN2C)C(C(F)(F)F)C(F)(F)F)OC(C)=O)n1,0.253 µM,> 16.7 µM,> 16.7 µM,0.154 µM,1.81 µM,> 16.7 µM,0.256 µM,> 16.7 µM,> 16.7 µM,> 16.7 µM,0.021 µM,0.0777 µM,0.0927 µM,0.0397 µM,0.0275 µM,0.309 µM,0.0495 µM,0.102 µM,0.0624 µM,0.102 µM
COC(=O)C(/C(=N\O)C(=O)Nc1ccc(Br)cc1)c1nc2ccccc2[nH]c1=O (centres undefined),50 µM,49.2 µM,> 100 µM,58.4 µM,68.2 µM,> 100 µM,> 100 µM,> 100 µM,> 100 µM,> 100 µM,–,–,–,–,–,–,–,–,–,–
O=C(/C=C/c1ccc(Cl)cc1Cl)c1ccc(Cl)cc1Cl,48.1 µM,–,39.6 µM,> 54.9 µM,36.4 µM,88.5 µM,> 60.1 µM,> 74.4 µM,67.2 µM,58.7 µM,20.6 µM,1.63 µM,16.6 µM,20.7 µM,16.7 µM,26.6 µM,15.2 µM,27.2 µM,20.5 µM,20.6 µM
N=C1C=C(N)C(=O)c2ccccc21,0.281 µM,0.373 µM,0.661 µM,0.347 µM,0.319 µM,0.243 µM,1.82 µM,1.64 µM,0.61 µM,0.421 µM,0.139 µM,0.189 µM,0.248 µM,0.181 µM,0.174 µM,0.103 µM,0.386 µM,0.496 µM,0.219 µM,0.202 µM
CN(C)Cc1cc(C(C)(C)C)cc(CN(C)C)c1O,> 100 µM,> 100 µM,> 100 µM,> 100 µM,> 100 µM,> 100 µM,> 100 µM,> 100 µM,> 100 µM,> 100 µM,–,–,–,–,–,–,–,–,–,–
CS(=O)(=O)CCNCc1ccoc1-c1ccc2ncnc(Nc3ccc(OCc4ccccc4)cc3)c2c1,> 25 µM,> 25 µM,> 25 µM,> 25 µM,> 25 µM,> 25 µM,> 25 µM,> 25 µM,> 25 µM,> 25 µM,> 25 µM,> 25 µM,> 25 µM,> 25 µM,9.74 µM,> 25 µM,9.55 µM,> 25 µM,> 25 µM,1.03 µM
CCOC(=O)N(O)c1ccc(/C=C/c2ccccc2)cc1,15.7 µM,28.6 µM,> 100 µM,40.1 µM,14.5 µM,> 84.2 µM,31.5 µM,59.8 µM,37.1 µM,63.6 µM,3.16 µM,8.62 µM,10.9 µM,17.1 µM,3.85 µM,7.21 µM,8.3 µM,17.6 µM,5.77 µM,9.05 µM
CC(CC(=O)Nc1ccc(NC(=O)CC(C)N=NC(N)=O)cc1)N=NC(N)=O (centres undefined),> 100 µM,> 100 µM,> 100 µM,> 100 µM,> 100 µM,> 100 µM,> 100 µM,> 100 µM,> 100 µM,> 100 µM,–,–,–,–,–,–,–,–,–,–
CC[C@@H](C(=O)[C@@H](C)[C@@H](O)[C@H](C)[C@@H]1O[C@@H]([C@@H](CC)C(=O)O)CC[C@@H]1C)[C@H]1O[C@]2(C=C[C@@H](O)[C@]3(CC[C@@](C)([C@H]4CC[C@](O)(CC)[C@H](C)O4)O3)O2)[C@H](C)C[C@@H]1C,25.8 µM,2.48 µM,29.5 µM,5.27 µM,1.61 µM,34 µM,15 µM,2.38 µM,11.4 µM,24.8 µM,0.166 µM,0.279 µM,1.2 µM,0.806 µM,0.401 µM,1.12 µM,0.331 µM,1.14 µM,0.528 µM,1.11 µM
CNc1nc(-c2ccc3c(N)n[nH]c3c2)cc(N2C[C@@H](C(=O)NC3CCCCC3)CC[C@H]2C)n1,15.6 µM,8.13 µM,24.7 µM,17.8 µM,13.9 µM,23.1 µM,17.1 µM,15.8 µM,20.1 µM,15.4 µM,2.16 µM,1.18 µM,9.16 µM,3.76 µM,2.84 µM,3.6 µM,2.25 µM,1.68 µM,3.69 µM,2.12 µM
COc1cc2c(=O)n(CC3CCCCC3)c3c4cc[nH]c4ncc3c2cc1OC,18 µM,41.7 µM,> 50 µM,3.08 µM,25.9 µM,10.3 µM,15.2 µM,31.2 µM,> 50 µM,> 50 µM,6.66 µM,8.69 µM,5 µM,0.681 µM,4.37 µM,1.1 µM,2.85 µM,7.25 µM,6.66 µM,5.52 µM
Cc1c(Cl)cccc1NC(=O)C(=O)c1c(O)c2ccc(O)cc2oc1=O,> 100 µM,> 100 µM,> 100 µM,> 100 µM,> 100 µM,> 100 µM,> 100 µM,> 100 µM,> 100 µM,> 100 µM,–,–,–,–,–,–,–,–,–,–
N#Cc1cc2c(cc1Cl)SC(=Nc1ccccc1)N(S(=O)(=O)c1ccc(Br)s1)S2(=O)=O,32 µM,37.8 µM,47.9 µM,39 µM,30.3 µM,44 µM,> 100 µM,44.1 µM,38 µM,35.1 µM,15.9 µM,15 µM,18.9 µM,21.6 µM,16 µM,20.9 µM,32.3 µM,19.5 µM,19.3 µM,19.5 µM
CCCCCCCCc1cc(O)ccc1O,30 µM,30.8 µM,> 100 µM,28.8 µM,30.7 µM,39.2 µM,49.4 µM,33.4 µM,42 µM,61.1 µM,15.4 µM,13 µM,29.2 µM,15.4 µM,17 µM,14.8 µM,16.1 µM,17.4 µM,17.3 µM,18.1 µM
O=C1C(=Cc2ccc(F)cc2)C(=O)c2ccccc21,> 100 µM,> 100 µM,> 100 µM,> 100 µM,> 100 µM,> 100 µM,> 100 µM,> 100 µM,> 100 µM,> 100 µM,–,–,–,–,–,–,–,–,–,–
Cc1c2ccccc2c(C)n2c1nc1cc(Cl)c(Cl)cc12,–,> 100 µM,> 100 µM,> 100 µM,> 100 µM,> 100 µM,> 100 µM,> 100 µM,> 100 µM,> 100 µM,18.6 µM,> 100 µM,> 100 µM,> 100 µM,25.7 µM,22.4 µM,31 µM,> 100 µM,> 100 µM,93.7 µM
NC(=O)c1nc(-c2ccc(Cl)c(Cl)c2)nc2ccccc12,> 29.4 µM,> 100 µM,> 21.8 µM,> 95.5 µM,> 100 µM,> 100 µM,> 100 µM,> 40.9 µM,> 100 µM,> 100 µM,–,–,–,–,–,–,–,–,–,–
COc1ccc(/C=C2/CSC/C(=C/c3ccc(OC)c(OC)c3)C2=O)cc1OC,5.15 µM,7.61 µM,2.19 µM,10.6 µM,7.01 µM,5.49 µM,2.7 µM,9.76 µM,6.13 µM,42.8 µM,–,–,–,–,–,–,–,–,–,–
CCOC(=O)CN1C(=O)C(=O)N(c2ccc(OC)c3ccccc23)C1=O,> 100 µM,> 100 µM,> 100 µM,> 100 µM,> 100 µM,> 100 µM,> 100 µM,> 100 µM,> 100 µM,> 100 µM,–,–,–,–,–,–,–,–,–,–
CN(C)CCOc1ccc2c(c1)C(=O)/C(=C\c1ncc([N+](=O)[O-])n1C)C2,1.26 µM,1.93 µM,> 20.5 µM,3.35 µM,0.402 µM,3.53 µM,2.25 µM,2.79 µM,1.3 µM,3.83 µM,0.359 µM,0.631 µM,0.95 µM,1.4 µM,0.179 µM,0.529 µM,0.346 µM,0.922 µM,0.258 µM,0.711 µM
